Experiments:
ΔF508-CFTR [1] = target: T1, ΔF508-CFTR (Homo sapiens, UniProt P13569, DEL508-508); test: CFTR cell surface levels using HRP-tagged ΔF508-CFTR expressing CFBE cells, intrinsic corrector capacity; format: cell-based
T1 construct: host or cells: CFBE41o-, doxycycline-inducible
Outline: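 Here the cells express ΔF508-CFTR with horseradish peroxidase inserted in extracellular loop 4, so only rescued channel at the surface gives luminescent signal. Compounds act on their own, 20 h at the reduced temperature of 33 °C; values are percent activity relative to DMSO and a 3 μM corrector.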

ΔF508-CFTR [2] = target: T1, ΔF508-CFTR; test: CFTR cell surface levels using HRP-tagged ΔF508-CFTR expressing CFBE cells, in the presence of a co-corrector; format: cell-based
Outline: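 Cells were seeded with 0.5 μg/mL doxycycline and held 68 h at 37 °C. Test compounds plus 3 μM co-corrector (final 0.1% DMSO) were then added for 20 h at 33 °C. Washed cells received HRP substrate, and luminescence was normalized between DMSO and 3 μM co-corrector controls.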

[3] = HRP-tagged ΔF508-CFTR CFBE41o- cells, compounds alone (intrinsic corrector capacity), 20 hours at 33° C., positive control 3 μM corrector
[4] = HRP-tagged ΔF508-CFTR CFBE41o- cells, compounds alone (intrinsic corrector capacity), 20 hours at 33° C., read-out: EC50
[5] = HRP-tagged ΔF508-CFTR expressing CFBE cells, in the presence of 3 μM co-corrector
[6] = HRP-tagged ΔF508-CFTR expressing CFBE cells, in the presence of 3 μM co-corrector, read-out: EC50
[7] = HRP-tagged ΔF508-CFTR expressing CFBE cells, intrinsic corrector capacity (no co-corrector), 33° C., 20 hours
[8] = HRP-tagged ΔF508-CFTR expressing CFBE cells, intrinsic corrector capacity (no co-corrector), 33° C., 20 hours, read-out: EC50

T1 sequence (P13569 with tags, fused parts or gaps DEL508-508): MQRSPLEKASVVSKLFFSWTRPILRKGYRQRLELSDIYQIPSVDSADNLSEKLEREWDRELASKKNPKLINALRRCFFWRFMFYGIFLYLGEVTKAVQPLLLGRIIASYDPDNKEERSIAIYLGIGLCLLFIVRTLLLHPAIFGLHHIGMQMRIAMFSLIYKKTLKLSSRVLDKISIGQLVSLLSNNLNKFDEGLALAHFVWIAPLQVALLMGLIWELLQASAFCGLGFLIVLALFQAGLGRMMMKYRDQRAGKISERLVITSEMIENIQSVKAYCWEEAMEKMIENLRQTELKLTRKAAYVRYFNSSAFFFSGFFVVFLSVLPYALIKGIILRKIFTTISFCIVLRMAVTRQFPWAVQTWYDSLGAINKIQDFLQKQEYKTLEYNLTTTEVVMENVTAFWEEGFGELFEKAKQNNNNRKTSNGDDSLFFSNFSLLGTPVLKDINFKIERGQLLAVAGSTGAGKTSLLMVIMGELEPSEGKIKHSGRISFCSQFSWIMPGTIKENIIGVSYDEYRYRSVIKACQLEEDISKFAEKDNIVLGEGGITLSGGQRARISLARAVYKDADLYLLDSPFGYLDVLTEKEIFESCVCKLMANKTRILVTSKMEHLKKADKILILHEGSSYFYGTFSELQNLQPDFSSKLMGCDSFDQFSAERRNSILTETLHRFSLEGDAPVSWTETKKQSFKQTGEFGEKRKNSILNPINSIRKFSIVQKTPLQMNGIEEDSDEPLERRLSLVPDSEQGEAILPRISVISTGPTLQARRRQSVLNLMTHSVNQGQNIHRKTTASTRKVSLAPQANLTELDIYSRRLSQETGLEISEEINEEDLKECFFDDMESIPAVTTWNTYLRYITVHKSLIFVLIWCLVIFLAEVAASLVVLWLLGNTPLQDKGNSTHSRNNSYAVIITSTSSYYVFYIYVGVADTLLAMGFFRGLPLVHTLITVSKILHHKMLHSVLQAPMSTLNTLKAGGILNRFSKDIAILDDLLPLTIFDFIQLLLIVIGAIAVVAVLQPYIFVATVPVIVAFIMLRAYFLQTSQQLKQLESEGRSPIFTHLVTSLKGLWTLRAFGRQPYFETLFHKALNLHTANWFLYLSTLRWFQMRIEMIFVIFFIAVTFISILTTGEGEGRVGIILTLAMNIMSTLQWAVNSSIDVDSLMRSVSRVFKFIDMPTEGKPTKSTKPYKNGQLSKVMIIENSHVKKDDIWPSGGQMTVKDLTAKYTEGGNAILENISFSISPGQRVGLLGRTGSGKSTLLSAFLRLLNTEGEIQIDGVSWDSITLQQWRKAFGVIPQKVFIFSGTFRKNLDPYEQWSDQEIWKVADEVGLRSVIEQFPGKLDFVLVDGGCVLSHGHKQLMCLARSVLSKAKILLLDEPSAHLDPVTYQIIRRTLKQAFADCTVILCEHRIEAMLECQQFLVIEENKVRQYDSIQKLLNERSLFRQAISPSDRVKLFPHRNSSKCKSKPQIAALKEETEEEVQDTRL

SMILES | % Activation (ΔF508-CFTR [1]; [3]) [%] | EC50 (ΔF508-CFTR [1]; [4]) [nM] | % Activation (ΔF508-CFTR [2]; [5]) [%] | EC50 (ΔF508-CFTR [2]; [6]) [nM] | % Activation (ΔF508-CFTR [1]; [7]) [%] | EC50 (ΔF508-CFTR [1]; [8]) [nM] | % Activation (ΔF508-CFTR [1]; HRP-tagged ΔF508-CFTR CFBE cells, compound alone (intrinsic corrector capacity), 20 hours at 33° C.) [%] | EC50 (ΔF508-CFTR [1]; HRP-tagged ΔF508-CFTR CFBE cells, compound alone (intrinsic corrector capacity), 20 hours at 33° C., read-out: EC50) [nM] | EC50 (ΔF508-CFTR [1]) [nM] | EC50 (ΔF508-CFTR [2]) [nM]
CN(C)Cc1nn(-c2ccccc2)c2nc(C(=O)O)cc(-c3ccc(N4CCOCC4)cc3)c12 [compound 87, 3-[(dimethylamino)methyl]-4-[4-(morpholin-4-yl)phenyl]-1-phenyl-1H-pyrazolo[3,4-b]pyridine-6-carboxylic acid] | 28.91 | > 10000 | 148.9 | 3340 |  |  |  |  |  | 
O=C(O)c1cc(N2CCC(N3CCOCC3)CC2)c2c(C3CCC3)nn(-c3ccc(OC(F)(F)F)cc3)c2n1 [compound 909, 3-cyclobutyl-4-[4-(morpholin-4-yl)piperidin-1-yl]-1-[4-(trifluoromethoxy)phenyl]-1H-pyrazolo[3,4-b]pyridine-6-carboxylic acid] |  |  | 498.4 | 56.2 | 277.7 | 134 |  |  |  | 
O=C(O)c1cc(N2CC(F)(F)C2)c2c(C3CCC3)nn(-c3ccccc3)c2n1 [compound 528, 3-cyclobutyl-4-(3,3-difluoroazetidin-1-yl)-1-phenyl-1H-pyrazolo[3,4-b]pyridine-6-carboxylic acid] |  |  | 209.2 | 1940 | 80.74 | 3330 |  |  |  | 
Cc1nn(-c2ccccc2)c2nc(C(=O)O)cc(N3CCN(CC(=O)N(C)C)CC3)c12 [compound 323, 4-{4-[2-(dimethylamino)-2-oxoethyl]piperazin-1-yl}-3-methyl-1-phenyl-1H-pyrazolo[3,4-b]pyridine-6-carboxylic acid] | 8.143 | > 10000 | 128.4 | > 10000 |  |  |  |  |  | 
N#CC1CCN(c2ccc(-c3cc(C(=O)O)nc4c3c(OC3CCOC3)nn4-c3ccccc3)cn2)CC1 (stereo not shown) [compound 591, 4-[6-(4-cyanopiperidin-1-yl)pyridin-3-yl]-3-[(oxolan-3-yl)oxy]-1-phenyl-1H-pyrazolo[3,4-b]pyridine-6-carboxylic acid] |  |  | 286.4 | 450 | 106.3 | 926 |  |  |  | 
CC(C)(C)c1nn(C2CCCC2)c2nc(C(=O)O)cc(-c3cnc(N4CCOCC4)nc3)c12 [compound 100, 3-tert-butyl-1-cyclopentyl-4-[2-(morpholin-4-yl)pyrimidin-5-yl]-1H-pyrazolo[3,4-b]pyridine-6-carboxylic acid] | 115.7 | 981 | 310 | 457 |  |  |  |  |  | 
Cc1cccc(-n2nc(C(C)C)c3c(N4CCC5(CC4)COC5)cc(C(=O)O)nc32)c1 [compound 202, 1-(3-methylphenyl)-4-(2-oxa-7-azaspiro[3.5]nonan-7-yl)-3-(propan-2-yl)-1H-pyrazolo[3,4-b]pyridine-6-carboxylic acid] | 136.8 | 795 | 309.3 | 609 |  |  |  |  |  | 
Cc1nn(-c2ccccc2)c2nc(C(=O)O)cc(-c3cnc(N4CCOCC4)nc3)c12 [compound 15, 3-methyl-4-[2-(morpholin-4-yl)pyrimidin-5-yl]-1-phenyl-1H-pyrazolo[3,4-b]pyridine-6-carboxylic acid] | 98.68 | 2670 | 282.5 | 2600 |  |  |  |  |  | 
O=C(O)c1cc(N2CCC(N3CCOCC3)CC2)c2c(C3CCC3)nn(-c3cc(F)ccc3F)c2n1 [compound 916, 3-cyclobutyl-1-(2,5-difluorophenyl)-4-[4-(morpholin-4-yl)piperidin-1-yl]-1H-pyrazolo[3,4-b]pyridine-6-carboxylic acid] |  |  | 362.05 | 1380 |  |  | 165.25 | 1670 |  | 
Cc1cc(N2CCN(c3cc(C(=O)O)nc4c3c(C3CCC3)nn4C3CCCCC3)CC2)ccn1 [compound 864, 3-cyclobutyl-1-cyclohexyl-4-[4-(2-methylpyridin-4-yl)piperazin-1-yl]-1H-pyrazolo[3,4-b]pyridine-6-carboxylic acid] |  |  | 458.6 | 105 | 337.7 | 1010 |  |  |  | 
O=C(O)c1cc(OCC2CCC(F)(F)C2)c2c(C3CCC3)nn(-c3ccccc3)c2n1 (stereo not shown) [compound 435, 3-cyclobutyl-4-[(3,3-difluorocyclopentyl)methoxy]-1-phenyl-1H-pyrazolo[3,4-b]pyridine-6-carboxylic acid] |  |  | 290.05 | 453 | 116.7 | 773 |  |  |  | 
COCC(COC)Oc1cc(C(=O)O)nc2c1c(C1CCC1)nn2-c1ccccc1 [compound 491, 3-cyclobutyl-4-[(1,3-dimethoxypropan-2-yl)oxy]-1-phenyl-1H-pyrazolo[3,4-b]pyridine-6-carboxylic acid] |  |  | 256.5 | 966 | 82.97 | 2280 |  |  |  | 
O=C(O)c1cc(N2CCC(CN3CCC4(CC3)COC4)CC2)c2c(C3CCC3)nn(-c3ccccc3)c2n1 [compound 840, 3-cyclobutyl-4-{4-[(2-oxa-7-azaspiro[3.5]nonan-7-yl)methyl]piperidin-1-yl}-1-phenyl-1H-pyrazolo[3,4-b]pyridine-6-carboxylic acid] |  |  | 368.8 | 250 | 164.4 | 400 |  |  |  | 
CC1CN(c2cc(C(=O)O)nc3c2c(C2CCC2)nn3-c2ccccc2)C1 [compound 440, 3-cyclobutyl-4-(3-methylazetidin-1-yl)-1-phenyl-1H-pyrazolo[3,4-b]pyridine-6-carboxylic acid] |  |  | 308.95 | 1930 | 104.7 | 1920 |  |  |  | 
O=C(O)c1cc(OCCN(C2CCCCC2)C2COC2)c2c(C3CCC3)nn(-c3ccccc3)c2n1 [compound 625, 3-cyclobutyl-4-{2-[cyclohexyl(oxetan-3-yl)amino]ethoxy}-1-phenyl-1H-pyrazolo[3,4-b]pyridine-6-carboxylic acid] |  |  | 326.75 | 126 | 135.2 | 300 |  |  |  | 
Cc1nn(-c2ccccc2)c2nc(C(=O)O)cc(C(=O)N3CCCCC3)c12 [compound 158, 3-methyl-1-phenyl-4-(piperidine-1-carbonyl)-1H-pyrazolo[3,4-b]pyridine-6-carboxylic acid] | 1.521 | > 10000 | 112.2 | > 10000 |  |  |  |  |  | 
CC(C)c1nn(-c2ccc(F)cc2)c2nc(C(=O)O)cc(N3CC4(CCCOC4)C3)c12 [compound 400, 1-(4-fluorophenyl)-4-(6-oxa-2-azaspiro[3.5]nonan-2-yl)-3-(propan-2-yl)-1H-pyrazolo[3,4-b]pyridine-6-carboxylic acid] |  |  | 283.65 | 980 | 111.35 | 1350 |  |  |  | 
CC(C)c1nn(-c2cccc(N3CC(O)C3)c2)c2nc(C(=O)O)cc(-c3ccc(N4CCOCC4)cc3)c12 [compound 225, 1-[3-(3-hydroxyazetidin-1-yl)phenyl]-4-[4-(morpholin-4-yl)phenyl]-3-(propan-2-yl)-1H-pyrazolo[3,4-b]pyridine-6-carboxylic acid] | 251.5 | 1980 | 395.7 | 901 |  |  |  |  |  | 
CC1CN(C2CCN(c3cc(C(=O)O)nc4c3c(C3CCC3)nn4-c3ccccc3)CC2)CC(C)O1 (stereo not shown) [compound 688, 3-cyclobutyl-4-[4-(2,6-dimethylmorpholin-4-yl)piperidin-1-yl]-1-phenyl-1H-pyrazolo[3,4-b]pyridine-6-carboxylic acid] |  |  | 532.6 | 247 | 322.5 | 247 |  |  |  | 
CC(C)c1nn(-c2ccc(F)cc2)c2nc(C(=O)O)cc(N3CCC(CCN4CCN(C)CC4)CC3)c12 [compound 785, 1-(4-fluorophenyl)-4-{4-[2-(4-methylpiperazin-1-yl)ethyl]piperidin-1-yl}-3-(propan-2-yl)-1H-pyrazolo[3,4-b]pyridine-6-carboxylic acid] |  |  | 482.8 | 558 | 264.9 | 622 |  |  |  | 
Cc1cccc(-n2nc(C(C)C)c3c(-c4ccc(N5CCC(C#N)CC5)nc4)cc(C(=O)O)nc32)c1 [compound 175, 4-[6-(4-cyanopiperidin-1-yl)pyridin-3-yl]-1-(3-methylphenyl)-3-(propan-2-yl)-1H-pyrazolo[3,4-b]pyridine-6-carboxylic acid] | 321.67 | 809 | 522.6 | 532 |  |  |  |  |  | 
CC(C)c1nn(-c2ccc(F)cc2)c2nc(C(=O)O)cc(N3CCC(CN4CCCC4)CC3)c12 [compound 811, 1-(4-fluorophenyl)-3-(propan-2-yl)-4-{4-[(pyrrolidin-1-yl)methyl]piperidin-1-yl}-1H-pyrazolo[3,4-b]pyridine-6-carboxylic acid] |  |  | 408.4 |  | 120.4 |  |  |  | 890 | 1080

Source: patent US9796711B2, “Substituted pyrazolo[3,4-b]pyridin-6-carboxylic acids and method of use” (AbbVie S.àr.l., priority 2015, dated 2017)
